Results published in patent US10906904B2, “ADO-resistant cysteamine analogs and uses thereof” (HORIZON ORPHAN LLC, priority 2015, dated 2021).
Where two headings read alike, the source gives them in different places. Each block holds one molecule with its values, some of them ahead of it.

Key:
Cystine reactivity assay = settings: 30° C., percentage of 3 mM cysteamine
Experimental: Cystine reactivity was assessed by incubating 3 mM test compound with 100 nM BODIPY® FL L-Cystine (Life Tech.) at 30° C., pH 7.4 in phosphate buffer. […] Compound cystine reactivity was expressed as a percentage of that of 3 mM cysteamine.
Under resting conditions, the inherent fluorescence of BODIPY® FL L-cystine was very low due to the spatial proximity of the two BODIPY molecules causing quenching. Under chemical reaction (disruption of the S—S bond), the spatial distance was increased, the quenching lost, and measured fluorescence increased. Time (minutes) vs. fluorescence (relative fluorescence units—RFU) was plotted and linear regression analysis was performed to generate a slope value corresponding to the reaction rate in RFU/min and an R2 value.

[1] = test system: cystinotic human fibroblasts; test: Cystine depletion assay; type: cell-based; settings: for Emax: Homo sapiens, Fibroblast, 1 h; for Emax / Cystine Depletion (%): relative to cystine depletion by cysteamine (100%) at a similar concentration; for cystine depletion levels (in words): compared to cysteamine; for Cystine depletion: compound at 50 μM or 100 μM, Tables 1-3
Experimental: The ability of test compounds to deplete cystine from cystinotic human fibroblasts (Coriell) was determined by incubating compounds with cells for 60 min at 37° C., 95% (v/v) air/5% (v/v) CO2 in Minimal Essential Media Eagle. Treated cell samples were subsequently harvested, then homogenized to ensure plasma and lysosomal membrane disruption. Protein was removed by acid precipitation and cystine in the supernatant measured using LC-MS/MS and HILIC chromatography. Protein levels were determined and cystine levels reported as nM per mg/ml protein. Cystine levels after test compound treatment were expressed as a percentage of that of untreated control cells.
Compounds were assayed at a concentration of 50 μM or 100 μM according to the general methods described above.
Cystine depletion levels for the compounds are expressed in Table 4 as a percent relative to the cystine depletion achieved by cysteamine (c.f. cysteamine 100%) at a similar concentration.
Cystine depletion levels for each of the compounds in Table 5 are expressed as a percent relative to the cystine depletion achieved by cysteamine (c.f. cysteamine 100%) at a similar concentration.

St-HdhQ^111/111 cells = test: Glutamate-induced neuronal excitotoxicity assay; type: cell-based; settings: STHdhQ111, 6 mM L-glutamate 24 hours, % of effect of 100 μM cysteamine; for viability at 10 µM: read-out: HdhQ^111/111 cell % survival (mean ± STD) Test Conc. 10 μM; for viability at 100 µM: read-out: HdhQ^111/111 cell % survival (mean ± STD) Test Conc. 100 μM
Experimental: The ability of test compounds to inhibit glutamate-induced excitotoxicity (neuroprotection) in St-HdhQ^111/111 cells was determined by incubating compounds with cells for 60 min at 33° C., 95% (v:v) air/5% (v:v) CO2 in Dulbecco's Modified Eagle Media. Following this, excitotoxicity was induced by the addition of 6 mM L-glutamate for 24 hours. Cell viability was assessed by measuring ATP levels using a luminescent-based CellTitre Glo assay (Promega). Compound neuroprotection (% cell survival) was expressed as a % of the effect recorded with 100 μM cysteamine (denoted as 100% cell survival).

human recombinant ADO = target: T1, human recombinant ADO (Homo sapiens, UniProt Q96SZ5); type: in vitro ADME
T1 sequence (Q96SZ5 1-270): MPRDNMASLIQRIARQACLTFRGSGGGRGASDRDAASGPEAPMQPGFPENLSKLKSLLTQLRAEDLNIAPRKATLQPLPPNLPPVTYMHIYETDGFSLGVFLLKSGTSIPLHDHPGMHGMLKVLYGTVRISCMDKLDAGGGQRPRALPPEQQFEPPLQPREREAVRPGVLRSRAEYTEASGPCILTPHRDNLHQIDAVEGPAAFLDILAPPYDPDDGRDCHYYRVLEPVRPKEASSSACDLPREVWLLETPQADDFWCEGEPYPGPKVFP
Experimental: The rate of ADO metabolism was determined by incubating 15 mM test compound with 60 μg/ml human recombinant ADO and 20 nM MitoXpress® O2-sensitive fluorescent probe (Luxcel) at 37° C. in assay buffer/salt in a sealed assay chamber. The initial rate of fluorescence (excitation λ380 nm and emission λ650 nm) increase was used to measure ADO-dependent oxygen depletion activity. The ability of ADO to metabolize compounds and concomitantly consume oxygen was expressed relative to that of 15 mM cysteamine.

[2] = Table 4, read-out: Cystine Depletion (%)
[3] = Table 5, read-out: Cystine Depletion (%) Mean Value

SMILES: CCN1CCC(S)CC1 [Compound 42391]
Cystine Reactivity Assay (30° C.) (%) Mean Value (Cystine reactivity assay; Table 4): >90%
Emax [1, 2]: 60%

SMILES: CC(C)(N)CS [Compound 42097]
Emax [1, 2]: 97%

SMILES: N[C@H]1C[C@@H](SS[C@H]2C[C@@H](N)C2)C1 [Compound 151270]
Emax [1, 3]: 3%

SMILES: N[C@H]1C[C@H](S)C1 [Compound 142460]
Cystine Reactivity Assay (30° C.) (%) Mean Value (Cystine reactivity assay; Table 5): 50-90%
Emax [1, 3]: 78%

SMILES: Nc1nc2[nH]cnc2c(=S)[nH]1 [Compound 1141]
Cystine Reactivity Assay (30° C.) (%) Mean Value (Cystine reactivity assay; Table 5): <50%
Emax [1, 3]: 0%

SMILES: C[C@@]1(S)CCCNC1 [Compound 151182]
Cystine Reactivity Assay (30° C.) (%) Mean Value (Cystine reactivity assay; Table 5): 59-90%
Emax [1, 3]: 59%
viability at 10 µM (St-HdhQ^111/111 cells): 1 ± 5%
viability at 100 µM (St-HdhQ^111/111 cells): 85 ± 11%

SMILES: C[N+]1(C)CCC(S)CC1
viability at 10 µM (St-HdhQ^111/111 cells): 1 ± 6%
viability at 100 µM (St-HdhQ^111/111 cells): 16 ± 7%

SMILES: CN1CC(SSC2CN(C)C2)C1 [Compound 42151]
Emax [1, 2]: 133%

SMILES: NC1CCC(S)C1 (stereo not shown) [Compound 42691]
Cystine Reactivity Assay (30° C.) (%) Mean Value (Cystine reactivity assay; Table 4): 50-90%

SMILES: CC1(S)CCNC1 (stereo not shown) [Compound 150731]
Cystine Reactivity Assay (30° C.) (%) Mean Value (Cystine reactivity assay; Table 5): >90%
Emax [1, 3]: 58%

SMILES: CN1CC[C@H](S)C1
viability at 10 µM (St-HdhQ^111/111 cells): 11 ± 11%
viability at 100 µM (St-HdhQ^111/111 cells): 95 ± 6%

SMILES: CN1CC[C@H](SS[C@H]2CCN(C)C2)C1 [Compound 42343]
Emax [1, 2]: 84%

SMILES: FC1(F)CCNC[C@@H]1S [Compound 42694]
Cystine Reactivity Assay (30° C.) (%) Mean Value (Cystine reactivity assay; Table 4): <50%
Emax [1, 2]: 20%

SMILES: CC(C)N1CCC(S)CC1 [Compound 42458]
Cystine Reactivity Assay (30° C.) (%) Mean Value (Cystine reactivity assay; Table 4): >90%
Emax [1, 2]: 91%

SMILES: Sc1ccncc1 [Compound 42338]
Cystine Reactivity Assay (30° C.) (%) Mean Value (Cystine reactivity assay; Table 4): <50%

SMILES: N[C@@H]1CCCC[C@@H]1S [Compound 42610]
Cystine Reactivity Assay (30° C.) (%) Mean Value (Cystine reactivity assay; Table 4): >90%
Emax [1, 2]: 91%
viability at 10 µM (St-HdhQ^111/111 cells): 19 ± 6%
viability at 100 µM (St-HdhQ^111/111 cells): 77 ± 8%

ADO metabolism (human recombinant ADO; human, 15 mM): 14%
SMILES: NC1(CS)CC1 [Compound 3d]
metabolism by ADO compared to cysteamine (in words) (human recombinant ADO): significantly reduced metabolism by ADO compared to cysteamine
cystine depletion levels (in words) [1]: slightly decreased
Cystine depletion [1]: 55%

SMILES: C[C@H](N)CS (single isomer, unassigned) [Compound 42-98]
Cystine Depletion (%) ([1]; Table 4): 70%

SMILES: C[C@H]1C[C@@H](S)CCN1 [Compound 42618]
Emax [1, 2]: 49%

SMILES: CN1CC[C@@H](SS[C@H]2CCN(C)C2)C1 [Compound 42342]
Emax [1, 2]: 91%

SMILES: N[C@@H]1CCCC[C@H]1S [Compound 42692]
Cystine Reactivity Assay (30° C.) (%) Mean Value (Cystine reactivity assay; Table 4): >90%
Emax [1, 2]: 100%
viability at 10 µM (St-HdhQ^111/111 cells): 82 ± 4%
viability at 100 µM (St-HdhQ^111/111 cells): 71 ± 5%

SMILES: Oc1ccc2ccccc2c1SSc1c(O)ccc2ccccc12 [Compound 2415]
Emax [1, 3]: 14%

SMILES: SCC1CNC1 [Compound 145585]
Cystine Reactivity Assay (30° C.) (%) Mean Value (Cystine reactivity assay; Table 5): >90%
Emax [1, 3]: 11%
viability at 10 µM (St-HdhQ^111/111 cells): 13 ± 10%
viability at 100 µM (St-HdhQ^111/111 cells): 100 ± 9%

SMILES: CNCCS [Compound 18781]
Cystine Depletion (%) ([1]; Table 4): 92%

ADO Metabolism Assay (%) Mean Value (human recombinant ADO; human, 15 mM): <25%
SMILES: C1CNC[C@H](SS[C@@H]2CCCNC2)C1 [Compound 145609]
Emax [1, 3]: 121%

SMILES: C[C@@H](N)CS (single isomer, unassigned) [Compound 42099]
Cystine Depletion (%) ([1]; Table 4): 79%

SMILES: N[C@H]1C[C@H](SS[C@H]2C[C@H](N)C2)C1 [Compound 151271]
Emax [1, 3]: 27%

SMILES: CNCCS [Compound 1a]
metabolism by ADO compared to cysteamine (in words) (human recombinant ADO): significantly reduced metabolism by ADO compared to cysteamine
cystine depletion levels (in words) [1]: slightly decreased cystine depletion levels
Cystine depletion [1]: 85%
Cystine depletion ( ) = disulfide efficacy ([1]; disulfide of the compound, 50 μM or 100 μM): (94%)
